Literature values, collected in patent publication US20080221048A1, “Lyophilized azithromycin formulation” (APP Pharmaceuticals, LLC., priority 2004, published 2008).
Read-outs that look alike come from different tables or passages of the source.

Conditions: for time diluted azithromycin for injection is stable: diluted to 1.0-2.0 mg/mL

- time diluted azithromycin for injection is stable (at or below room temperature (30° C. or 86° F.)): 24 h
- time diluted azithromycin for injection is stable (stored under refrigeration (5° C. or 41° F.)): 170 h
- time reconstituted azithromycin solution is stable (reconstituted solution (about 100 mg/mL), stored below 30° C. or 86° F.): 24 h
Structure (SMILES): CC[C@H]1OC(=O)[C@H](C)[C@@H](O[C@H]2C[C@@](C)(OC)[C@@H](O)[C@H](C)O2)[C@H](C)[C@@H](OC2O[C@H](C)C[C@H](N(C)C)[C@H]2O)C(C)(O)C[C@@H](C)CN(C)[C@H](C)[C@@H](O)[C@]1(C)O (stereo in doubt) [azithromycin, (2R,3S,4R,5R,8R,10R,11R,12S,13S,14R)-13-[(2,6-dideoxy-3-C-methyl-3-O-methyl-α-L-ribo-hexo-pyranosyl)oxy]-2-ethyl-3,4,10-trihydroxy-3,5,6,8,10,12,14-heptamethyl-11-[[3,4,6-trideoxy-3-(dimethylamino)-β-D-xylo-hexopyranosyl]oxy]-1-oxa-6-azacyclopentadecan-15-one]
